The text below walks through data of the kinase profiling compilation of Christmann-Franck et al. (2016).

Molecules are shown by their SMILES.

CDK6 CCND3 (human), sequence (P30281 whole entry, looked up): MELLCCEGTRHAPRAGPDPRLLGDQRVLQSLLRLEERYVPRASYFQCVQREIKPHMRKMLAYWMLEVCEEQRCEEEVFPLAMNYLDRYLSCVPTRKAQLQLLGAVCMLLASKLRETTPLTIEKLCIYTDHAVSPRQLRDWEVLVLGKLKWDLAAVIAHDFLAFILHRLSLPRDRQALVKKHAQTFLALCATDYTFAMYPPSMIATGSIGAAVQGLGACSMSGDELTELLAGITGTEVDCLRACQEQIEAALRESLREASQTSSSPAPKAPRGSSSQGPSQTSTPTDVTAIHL
CDK6 CCND3 (human), sequence (Q00534 whole entry, looked up): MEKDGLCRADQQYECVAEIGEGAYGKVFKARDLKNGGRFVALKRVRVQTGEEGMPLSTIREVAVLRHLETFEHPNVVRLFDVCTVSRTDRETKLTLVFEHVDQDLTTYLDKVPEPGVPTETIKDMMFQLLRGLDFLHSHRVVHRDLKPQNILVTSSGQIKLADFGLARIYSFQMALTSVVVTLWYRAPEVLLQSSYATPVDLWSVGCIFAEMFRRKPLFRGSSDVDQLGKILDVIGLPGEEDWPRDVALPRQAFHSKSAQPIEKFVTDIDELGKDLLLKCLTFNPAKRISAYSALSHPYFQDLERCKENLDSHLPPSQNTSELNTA

The first test deals with ABL2 (human) (UniProt P42684). Briefly: radiometric filter-binding kinase assay, Kinase HotSpot. The settings on record: compound 0.5 µM; ATP 10 µM.
The term residual activity denotes the signal under treatment as a percentage of the control signal. On to `Cc1nc2cc3nc(-c4cccs4)cnc3cc2n1C`, for which the residual activity came out at 100%.

On to `COc1cc2ncnc(N3CCN(C(=O)Nc4ccc(Oc5ccccc5)cc4)CC3)c2cc1OC`, for which the residual activity worked out at 92.9%.

As to `Oc1ccc(Nc2nc(-c3ccc(Cl)cc3)cs2)cc1`, the residual activity was 93.4%.

The next test has as its target ACVR1 (human) (UniProt Q04771). Described as above. The settings on record: compound 0.5 µM; ATP 10 µM.
Turning to `Cc1nc2cc3nc(-c4cccs4)cnc3cc2n1C`, the residual activity was 99.3%.

For the compound `COc1cc2ncnc(N3CCN(C(=O)Nc4ccc(Oc5ccccc5)cc4)CC3)c2cc1OC`, the residual activity was 100%.

`Oc1ccc(Nc2nc(-c3ccc(Cl)cc3)cs2)cc1`: the residual activity was determined as 94.9%.

The target in the next test is BRSK2 (human) (UniProt Q8IWQ3). Described as above. The settings on record: compound 0.5 µM; ATP 10 µM.
With `Cc1nc2cc3nc(-c4cccs4)cnc3cc2n1C`, the residual activity was found to be 98%.

Regarding `COc1cc2ncnc(N3CCN(C(=O)Nc4ccc(Oc5ccccc5)cc4)CC3)c2cc1OC`, the residual activity is 94.1%.

Turning to `Oc1ccc(Nc2nc(-c3ccc(Cl)cc3)cs2)cc1`, the residual activity was determined as 101%.

A further test concerns the target CDC42BPB (human) (UniProt Q9Y5S2). The test is described as above. The settings on record: compound 0.5 µM; ATP 10 µM.
In the case of `Cc1nc2cc3nc(-c4cccs4)cnc3cc2n1C`, the residual activity came out at 100%.

`COc1cc2ncnc(N3CCN(C(=O)Nc4ccc(Oc5ccccc5)cc4)CC3)c2cc1OC`: the residual activity worked out at 98.3%.

Regarding `Oc1ccc(Nc2nc(-c3ccc(Cl)cc3)cs2)cc1`, the residual activity was determined as 108%.

Another test addresses CDK6 CCND3 (human) (UniProt P30281+Q00534). The description is as above. The note with it: compound 0.5 µM; ATP 10 µM.
On to `Cc1nc2cc3nc(-c4cccs4)cnc3cc2n1C`, for which the residual activity is 87.8%.

For the compound `COc1cc2ncnc(N3CCN(C(=O)Nc4ccc(Oc5ccccc5)cc4)CC3)c2cc1OC`, the residual activity stood at 100%.

For the compound `Oc1ccc(Nc2nc(-c3ccc(Cl)cc3)cs2)cc1`, the residual activity came to 109%.

The target in a further test is CHEK1 (human) (UniProt O14757). Described as above. The settings on record: compound 0.5 µM; ATP 10 µM.
In the case of `Cc1nc2cc3nc(-c4cccs4)cnc3cc2n1C`, the residual activity is 99.8%.

Turning to `COc1cc2ncnc(N3CCN(C(=O)Nc4ccc(Oc5ccccc5)cc4)CC3)c2cc1OC`, the residual activity was 99.4%.

As for `Oc1ccc(Nc2nc(-c3ccc(Cl)cc3)cs2)cc1`, the residual activity was 99.4%.

Another test has as its target CSNK1D (human) (UniProt P48730). The test is described as above. The note with it: compound 0.5 µM; ATP 10 µM.
In the case of `Cc1nc2cc3nc(-c4cccs4)cnc3cc2n1C`, the residual activity worked out at 95.9%.

With `COc1cc2ncnc(N3CCN(C(=O)Nc4ccc(Oc5ccccc5)cc4)CC3)c2cc1OC`, the residual activity was determined as 103%.

With `Oc1ccc(Nc2nc(-c3ccc(Cl)cc3)cs2)cc1`, the residual activity was 105%.

In a further test the target is CSNK1G1 (human) (UniProt Q9HCP0). The description is as above. The note with it: compound 0.5 µM; ATP 10 µM.
As to `Cc1nc2cc3nc(-c4cccs4)cnc3cc2n1C`, the residual activity is 92.2%.

For the compound `COc1cc2ncnc(N3CCN(C(=O)Nc4ccc(Oc5ccccc5)cc4)CC3)c2cc1OC`, the residual activity amounted to 81.6%.

`Oc1ccc(Nc2nc(-c3ccc(Cl)cc3)cs2)cc1`: the residual activity turned out to be 94.5%.

Another test addresses DYRK1A (human) (UniProt Q13627). The description is as above. The settings on record: compound 0.5 µM; ATP 10 µM.
In the case of `Cc1nc2cc3nc(-c4cccs4)cnc3cc2n1C`, the residual activity turned out to be 99.9%.

Consider `COc1cc2ncnc(N3CCN(C(=O)Nc4ccc(Oc5ccccc5)cc4)CC3)c2cc1OC`, for which the residual activity was determined as 97.9%.

`Oc1ccc(Nc2nc(-c3ccc(Cl)cc3)cs2)cc1`: the residual activity came out at 96.6%.

For the next test, the target named is DYRK2 (human) (UniProt Q92630). The test is described as above. The settings on record: compound 0.5 µM; ATP 10 µM.
For the compound `Cc1nc2cc3nc(-c4cccs4)cnc3cc2n1C`, the residual activity stood at 104%.

Take `COc1cc2ncnc(N3CCN(C(=O)Nc4ccc(Oc5ccccc5)cc4)CC3)c2cc1OC`: the residual activity stood at 95.4%.

Consider `Oc1ccc(Nc2nc(-c3ccc(Cl)cc3)cs2)cc1`, for which the residual activity was 91.2%.

The target in another test is EPHA8 (human) (UniProt P29322). The description is as above. The settings on record: compound 0.5 µM; ATP 10 µM.
For the compound `Cc1nc2cc3nc(-c4cccs4)cnc3cc2n1C`, the residual activity is 100%.

Take `COc1cc2ncnc(N3CCN(C(=O)Nc4ccc(Oc5ccccc5)cc4)CC3)c2cc1OC`: the residual activity was found to be 92.5%.

In the case of `Oc1ccc(Nc2nc(-c3ccc(Cl)cc3)cs2)cc1`, the residual activity is 93.4%.

The target in another test is EPHB1 (human) (UniProt P54762). The description is as above. The note with it: compound 0.5 µM; ATP 10 µM.
On to `Cc1nc2cc3nc(-c4cccs4)cnc3cc2n1C`, for which the residual activity came to 107%.

Turning to `COc1cc2ncnc(N3CCN(C(=O)Nc4ccc(Oc5ccccc5)cc4)CC3)c2cc1OC`, the residual activity was 94.3%.

Turning to `Oc1ccc(Nc2nc(-c3ccc(Cl)cc3)cs2)cc1`, the residual activity was 105%.

For the next test, the target named is ERBB2 (human) (UniProt P04626). Described as above. The settings on record: compound 0.5 µM; ATP 10 µM.
As for `Cc1nc2cc3nc(-c4cccs4)cnc3cc2n1C`, the residual activity came to 92%.

As to `COc1cc2ncnc(N3CCN(C(=O)Nc4ccc(Oc5ccccc5)cc4)CC3)c2cc1OC`, the residual activity was determined as 100%.

With `Oc1ccc(Nc2nc(-c3ccc(Cl)cc3)cs2)cc1`, the residual activity stood at 96.9%.

Another test concerns the target FES (human) (UniProt P07332). Described as above. The settings on record: compound 0.5 µM; ATP 10 µM.
Take `Cc1nc2cc3nc(-c4cccs4)cnc3cc2n1C`: the residual activity was 106%.

On to `COc1cc2ncnc(N3CCN(C(=O)Nc4ccc(Oc5ccccc5)cc4)CC3)c2cc1OC`, for which the residual activity is 98.3%.

With `Oc1ccc(Nc2nc(-c3ccc(Cl)cc3)cs2)cc1`, the residual activity was determined as 103%.

The next test concerns the target FLT1 (human) (UniProt P17948). The test is described as above. The settings on record: compound 0.5 µM; ATP 10 µM.
`Cc1nc2cc3nc(-c4cccs4)cnc3cc2n1C`: the residual activity worked out at 93.6%.

In the case of `COc1cc2ncnc(N3CCN(C(=O)Nc4ccc(Oc5ccccc5)cc4)CC3)c2cc1OC`, the residual activity stood at 79%.

As to `Oc1ccc(Nc2nc(-c3ccc(Cl)cc3)cs2)cc1`, the residual activity amounted to 82.3%.

A further test concerns the target HIPK1 (human) (UniProt Q86Z02). The description is as above. The settings on record: compound 0.5 µM; ATP 10 µM.
Turning to `Cc1nc2cc3nc(-c4cccs4)cnc3cc2n1C`, the residual activity came to 103%.

Regarding `COc1cc2ncnc(N3CCN(C(=O)Nc4ccc(Oc5ccccc5)cc4)CC3)c2cc1OC`, the residual activity came out at 96.9%.

Turning to `Oc1ccc(Nc2nc(-c3ccc(Cl)cc3)cs2)cc1`, the residual activity worked out at 100%.

The target of another test is HIPK3 (human) (UniProt Q9H422). The description is as above. The settings on record: compound 0.5 µM; ATP 10 µM.
HIPK3 (human), sequence (Q9H422 whole entry, looked up): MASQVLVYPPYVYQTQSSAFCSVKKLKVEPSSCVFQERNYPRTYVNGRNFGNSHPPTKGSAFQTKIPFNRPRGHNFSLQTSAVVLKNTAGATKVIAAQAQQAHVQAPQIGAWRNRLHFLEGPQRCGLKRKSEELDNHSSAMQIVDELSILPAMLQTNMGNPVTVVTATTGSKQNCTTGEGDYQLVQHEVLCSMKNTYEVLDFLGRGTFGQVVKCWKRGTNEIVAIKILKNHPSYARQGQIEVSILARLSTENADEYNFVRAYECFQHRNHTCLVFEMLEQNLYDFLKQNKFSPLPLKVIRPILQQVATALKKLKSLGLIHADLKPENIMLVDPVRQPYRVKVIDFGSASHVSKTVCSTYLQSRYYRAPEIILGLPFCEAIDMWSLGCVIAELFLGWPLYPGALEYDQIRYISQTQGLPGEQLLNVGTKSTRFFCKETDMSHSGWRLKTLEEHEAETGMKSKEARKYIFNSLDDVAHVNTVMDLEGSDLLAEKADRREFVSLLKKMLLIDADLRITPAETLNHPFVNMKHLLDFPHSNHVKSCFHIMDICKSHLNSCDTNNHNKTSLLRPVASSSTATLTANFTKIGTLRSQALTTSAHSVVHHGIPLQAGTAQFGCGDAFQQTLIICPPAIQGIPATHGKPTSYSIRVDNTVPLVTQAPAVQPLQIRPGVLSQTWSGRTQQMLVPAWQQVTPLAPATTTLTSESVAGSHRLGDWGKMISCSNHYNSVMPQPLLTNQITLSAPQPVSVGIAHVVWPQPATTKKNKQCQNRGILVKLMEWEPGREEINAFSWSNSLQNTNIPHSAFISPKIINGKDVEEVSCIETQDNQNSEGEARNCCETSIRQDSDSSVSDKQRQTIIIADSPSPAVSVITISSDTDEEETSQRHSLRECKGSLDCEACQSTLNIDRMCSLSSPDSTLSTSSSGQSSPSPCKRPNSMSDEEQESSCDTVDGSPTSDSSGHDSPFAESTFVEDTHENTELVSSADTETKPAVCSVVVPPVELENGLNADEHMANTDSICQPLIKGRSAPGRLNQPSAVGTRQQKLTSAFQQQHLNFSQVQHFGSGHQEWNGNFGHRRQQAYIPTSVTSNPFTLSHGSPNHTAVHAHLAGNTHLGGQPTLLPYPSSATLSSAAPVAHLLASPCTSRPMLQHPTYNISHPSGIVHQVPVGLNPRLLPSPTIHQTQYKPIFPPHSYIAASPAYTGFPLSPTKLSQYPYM
As for `Cc1nc2cc3nc(-c4cccs4)cnc3cc2n1C`, the residual activity came to 101%.

As to `COc1cc2ncnc(N3CCN(C(=O)Nc4ccc(Oc5ccccc5)cc4)CC3)c2cc1OC`, the residual activity was 87.4%.

In the case of `Oc1ccc(Nc2nc(-c3ccc(Cl)cc3)cs2)cc1`, the residual activity came out at 109%.

The target of another test is IKBKE (human) (UniProt Q14164). The test is described as above. The note with it: compound 0.5 µM; ATP 10 µM.
IKBKE (human), sequence (Q14164 whole entry, looked up): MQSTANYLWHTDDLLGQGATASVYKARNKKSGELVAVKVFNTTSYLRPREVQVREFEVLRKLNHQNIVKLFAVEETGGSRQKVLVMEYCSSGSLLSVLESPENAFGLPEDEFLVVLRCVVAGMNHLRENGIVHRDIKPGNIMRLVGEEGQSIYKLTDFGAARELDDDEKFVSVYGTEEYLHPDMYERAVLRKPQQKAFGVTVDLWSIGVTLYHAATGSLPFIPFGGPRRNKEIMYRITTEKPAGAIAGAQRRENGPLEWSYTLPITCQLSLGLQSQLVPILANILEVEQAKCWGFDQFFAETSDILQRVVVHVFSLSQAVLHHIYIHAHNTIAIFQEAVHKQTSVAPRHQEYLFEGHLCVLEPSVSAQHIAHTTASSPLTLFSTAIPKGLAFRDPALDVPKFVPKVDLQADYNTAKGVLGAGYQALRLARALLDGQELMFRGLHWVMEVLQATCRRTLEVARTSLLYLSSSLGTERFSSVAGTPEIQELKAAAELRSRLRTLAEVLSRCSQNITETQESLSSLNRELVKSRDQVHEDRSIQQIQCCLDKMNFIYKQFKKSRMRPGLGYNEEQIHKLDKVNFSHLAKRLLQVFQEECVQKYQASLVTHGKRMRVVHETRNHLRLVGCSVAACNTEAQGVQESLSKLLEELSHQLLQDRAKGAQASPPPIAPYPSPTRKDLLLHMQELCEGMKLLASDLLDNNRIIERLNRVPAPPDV
On to `Cc1nc2cc3nc(-c4cccs4)cnc3cc2n1C`, for which the residual activity stood at 89.8%.

With `COc1cc2ncnc(N3CCN(C(=O)Nc4ccc(Oc5ccccc5)cc4)CC3)c2cc1OC`, the residual activity was found to be 98.9%.

Take `Oc1ccc(Nc2nc(-c3ccc(Cl)cc3)cs2)cc1`: the residual activity is 95.9%.

For another test, the target named is INSRR (human) (UniProt P14616). Described as above. The settings on record: compound 0.5 µM; ATP 10 µM.
INSRR (human), sequence (P14616 whole entry, looked up): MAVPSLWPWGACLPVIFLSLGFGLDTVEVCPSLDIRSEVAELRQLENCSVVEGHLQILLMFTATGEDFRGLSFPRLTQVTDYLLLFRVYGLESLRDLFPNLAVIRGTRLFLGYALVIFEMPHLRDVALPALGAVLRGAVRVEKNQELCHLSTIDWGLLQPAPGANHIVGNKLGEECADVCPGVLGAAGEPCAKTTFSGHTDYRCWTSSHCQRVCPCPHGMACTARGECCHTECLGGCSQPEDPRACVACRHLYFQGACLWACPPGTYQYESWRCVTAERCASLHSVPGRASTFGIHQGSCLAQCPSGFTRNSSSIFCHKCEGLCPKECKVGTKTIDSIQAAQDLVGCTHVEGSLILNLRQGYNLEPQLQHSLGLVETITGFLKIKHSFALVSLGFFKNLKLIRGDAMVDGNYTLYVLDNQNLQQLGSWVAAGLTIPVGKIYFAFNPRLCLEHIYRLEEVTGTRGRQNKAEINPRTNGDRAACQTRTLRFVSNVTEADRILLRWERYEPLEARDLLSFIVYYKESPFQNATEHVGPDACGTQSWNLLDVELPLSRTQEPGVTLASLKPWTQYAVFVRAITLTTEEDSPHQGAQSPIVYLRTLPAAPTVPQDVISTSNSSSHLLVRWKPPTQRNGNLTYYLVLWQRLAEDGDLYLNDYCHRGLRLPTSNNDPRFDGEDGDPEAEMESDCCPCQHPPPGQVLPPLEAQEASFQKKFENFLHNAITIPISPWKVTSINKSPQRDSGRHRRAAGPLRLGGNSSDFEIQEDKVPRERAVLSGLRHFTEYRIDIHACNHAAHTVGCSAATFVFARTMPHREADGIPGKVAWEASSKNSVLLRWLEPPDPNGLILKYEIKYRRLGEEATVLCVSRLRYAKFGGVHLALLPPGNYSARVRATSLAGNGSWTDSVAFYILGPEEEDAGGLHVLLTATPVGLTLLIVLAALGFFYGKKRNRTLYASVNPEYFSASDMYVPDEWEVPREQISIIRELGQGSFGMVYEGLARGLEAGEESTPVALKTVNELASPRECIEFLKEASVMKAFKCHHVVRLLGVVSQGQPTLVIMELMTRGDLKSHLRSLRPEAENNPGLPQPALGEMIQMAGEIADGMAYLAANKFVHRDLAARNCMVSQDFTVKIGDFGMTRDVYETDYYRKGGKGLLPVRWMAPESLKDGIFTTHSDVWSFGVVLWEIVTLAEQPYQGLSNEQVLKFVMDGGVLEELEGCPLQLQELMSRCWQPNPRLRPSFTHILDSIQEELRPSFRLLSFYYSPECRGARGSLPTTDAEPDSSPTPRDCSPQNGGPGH
With `Cc1nc2cc3nc(-c4cccs4)cnc3cc2n1C`, the residual activity was 99.5%.

In the case of `COc1cc2ncnc(N3CCN(C(=O)Nc4ccc(Oc5ccccc5)cc4)CC3)c2cc1OC`, the residual activity came to 96.8%.

With `Oc1ccc(Nc2nc(-c3ccc(Cl)cc3)cs2)cc1`, the residual activity was determined as 98.8%.

The next test has as its target ITK (human) (UniProt Q08881). Described as above. The settings on record: compound 0.5 µM; ATP 10 µM.
In the case of `Cc1nc2cc3nc(-c4cccs4)cnc3cc2n1C`, the residual activity was found to be 96.7%.

As to `COc1cc2ncnc(N3CCN(C(=O)Nc4ccc(Oc5ccccc5)cc4)CC3)c2cc1OC`, the residual activity turned out to be 88.1%.

As for `Oc1ccc(Nc2nc(-c3ccc(Cl)cc3)cs2)cc1`, the residual activity was 95.4%.

For the next test, the target named is MAP3K10 (human) (UniProt Q02779). The test is described as above. The settings on record: compound 0.5 µM; ATP 10 µM.
MAP3K10 (human), sequence (Q02779 whole entry, looked up): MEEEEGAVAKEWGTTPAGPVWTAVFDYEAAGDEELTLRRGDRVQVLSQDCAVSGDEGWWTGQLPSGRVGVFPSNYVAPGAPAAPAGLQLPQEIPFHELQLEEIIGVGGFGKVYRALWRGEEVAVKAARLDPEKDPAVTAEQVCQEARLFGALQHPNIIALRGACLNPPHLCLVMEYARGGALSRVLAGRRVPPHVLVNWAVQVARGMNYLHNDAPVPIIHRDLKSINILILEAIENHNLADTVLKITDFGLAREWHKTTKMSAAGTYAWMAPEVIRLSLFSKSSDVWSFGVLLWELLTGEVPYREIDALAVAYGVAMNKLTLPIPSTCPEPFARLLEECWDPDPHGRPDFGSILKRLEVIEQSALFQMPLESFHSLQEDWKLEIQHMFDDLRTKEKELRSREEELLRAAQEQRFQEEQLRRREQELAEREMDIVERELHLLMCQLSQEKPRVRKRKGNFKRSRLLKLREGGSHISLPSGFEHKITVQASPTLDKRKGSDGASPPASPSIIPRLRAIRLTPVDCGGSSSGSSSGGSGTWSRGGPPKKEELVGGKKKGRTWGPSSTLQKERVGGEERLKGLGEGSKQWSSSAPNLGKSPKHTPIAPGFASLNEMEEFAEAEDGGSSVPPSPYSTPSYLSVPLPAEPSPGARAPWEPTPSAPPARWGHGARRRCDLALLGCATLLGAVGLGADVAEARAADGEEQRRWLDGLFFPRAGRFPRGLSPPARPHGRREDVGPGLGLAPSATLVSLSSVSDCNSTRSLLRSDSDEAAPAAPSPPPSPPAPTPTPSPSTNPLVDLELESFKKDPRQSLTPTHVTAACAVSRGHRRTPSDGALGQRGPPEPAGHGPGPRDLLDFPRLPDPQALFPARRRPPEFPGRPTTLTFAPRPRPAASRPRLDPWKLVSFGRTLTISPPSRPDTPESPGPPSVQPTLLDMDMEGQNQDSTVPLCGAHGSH
For `Cc1nc2cc3nc(-c4cccs4)cnc3cc2n1C`, the residual activity is 101%.

Regarding `COc1cc2ncnc(N3CCN(C(=O)Nc4ccc(Oc5ccccc5)cc4)CC3)c2cc1OC`, the residual activity worked out at 92%.

In the case of `Oc1ccc(Nc2nc(-c3ccc(Cl)cc3)cs2)cc1`, the residual activity turned out to be 100%.
